Source: US11993598B2, “Compounds for inhibiting EGFR kinase, preparation methods and uses thereof” (WIGEN BIOMEDICINE TECHNOLOGY (SHANGHAI) CO., LTD., priority 2019, dated 2024)

What was measured:
HER2 = HER2 (Homo sapiens, UniProt P04626); assay: HER2 biochemical activity assay (HTRF)
Protocol: (§1) Assay 1: Wild-type EGFR, HER2 and HER4, and mutant EGFR biochemical activity assay
(§2) 10 nL of Serially diluted compounds were transferred to assay plates using the labcyte Echo 550, and 5 uL of 2× enzymes in assay buffer were subsequently dispensed. The assay plate was covered with an adhesive plate seal, and briefly spinned for 30 s at 1000 g. 5 uL of 2× TK-substrate-biotin and ATP mixed in assay buffer were added.
(§3) IC50 was calculated and analyzed using a 4 parametric logistic model.

[1] = system: PC9 cells expressing luciferase; assay: In vivo orthotopic brain PC9 xenograft mouse model; conditions: oral
Protocol: Assay 4. In vivo orthotopic brain PC9 xenograft mouse model
3×10^5 PC9 cells expressing luciferase were injected to the mouse brain. Mice were randomized based on brain flurorescence intensity and body weight, and were orally administered vehicle or compound 1. Survival and body weights were monitored every day and mice with more than 20% body weight loss were sacrificed.

LU-01-0493 = assay: Patient derived xenograft (PDX) mouse model; format: in vivo, nude mice
Protocol: (§4) Assay 3. In vivo studies in cell line-derived (CDX) and patient derived xenografts (PDX) mouse models
(§5) Cells (H1975) or tissue pieces (LU0493 and LU0426) were implanted subcutaneously into the left armpit of nude mice. When the average tumor volume reached 100-150 mm^3, mice were randomized by tumor volume and treated with vehicle, compound 1 or poziotinib respectively. Tumor volume and body weight were measured twice per week. Mice were sacrificed on day 21 or day 28, and tumor volume and terminal body weight were recorded. The relative tumor volume, percent of treatment/control values and tumor growth inhibition were calculated and statistics was performed.
(§6) Terminal body weight changes were calculated as percentage of body changes from day 1 to day 21.

LU-01-0426 = assay: Patient derived xenograft (PDX) mouse model; format: in vivo, nude mice
Protocol: as §4, §5, §6

[2] = system: A431 (wild type EGFR, skin cancer); assay: Cell proliferation assay (MTT); format: cell-based; conditions: Homo sapiens, A-431, 72 h, three days
Protocol: (§7) A431 cells, H1975 and Ba/F3 cells expressing various mutant EGFR were harvested from exponential phase cultures and seeded in 96-well plates at a cell density of 3000 per well for A431 and H1975, and 10000 per well for Ba/F3 cells. After overnight attachment, compounds were 3-fold serially diluted and applied to cells at 30 μM, 10 μM, 3 μM, 1 μM, 0.3 μM, […], 0.03 μM and 0.01 μM with triplicates, and incubated for three days. 20 μL of 5 mg/mL MTT was added afterwards followed by the further addition of 50 μL 10% SDS together with 5% isobutyl alcohol in 0.01 mol/L HCl. The plates were incubated overnight. Absorbance (A) at a wavelength of 570 nm was quantified. Percentage of inhibition was used for the calculation of IC50 based on the bliss method.

[3] = system: H1975 (EGFR L858R/T790M, NSCLC); assay: Cell proliferation assay (MTT); format: cell-based; conditions: Homo sapiens, NCI-H1975, 72 h, three days
Protocol: as §7

LU-0387 = assay: Xenograft mouse model LU-0387; format: in vivo, nude mice
H1975 = assay: Cell line-derived xenograft (CDX) mouse model; format: in vivo, nude mice
Protocol: as §4, §5, §6

[4] = molecular target: EGFR D770_N771insNPG T790M (Homo sapiens, UniProt P00533, INS770NPG/T790M); assay: Mutant EGFR biochemical activity assay (HTRF); conditions: read-out: IC50 (nM) EGFR D770_N771 insNPG T790M
Protocol: as §1, §2, §3

EGFR L792H = EGFR L792H (Homo sapiens, UniProt P00533, L792H); assay: Mutant EGFR biochemical activity assay (HTRF)
Protocol: as §1, §2, §3

EGFR Del19 = EGFR Del19 (Homo sapiens, UniProt P00533); assay: Mutant EGFR biochemical activity assay (HTRF)
Protocol: as §1, §2, §3

EGFR A763_Y764insFHEA = EGFR A763_Y764insFHEA (Homo sapiens, UniProt P00533, INS763FHEA); assay: Mutant EGFR biochemical activity assay (HTRF); conditions: read-out: IC50 (nM) EGFR A763_Y764 insFHEA
Protocol: as §1, §2, §3

EGFR T790M/L858R = EGFR T790M/L858R (Homo sapiens, UniProt P00533, L858R/T790M); assay: Mutant EGFR biochemical activity assay (HTRF)
Protocol: as §1, §2, §3

EGFR L792F = EGFR L792F (Homo sapiens, UniProt P00533, L792F); assay: Mutant EGFR biochemical activity assay (HTRF)
Protocol: as §1, §2, §3

EGFR D770-N771insNPG = EGFR D770-N771insNPG (Homo sapiens, UniProt P00533, INS770NPG); assay: Mutant EGFR biochemical activity assay (HTRF)
Protocol: as §1, §2, §3

EGFR T790M = EGFR T790M (Homo sapiens, UniProt P00533, T790M); assay: Mutant EGFR biochemical activity assay (HTRF)
Protocol: as §1, §2, §3

EGFR D770GY = EGFR D770GY (Homo sapiens, UniProt P00533, D770Y/INS769G); assay: Mutant EGFR biochemical activity assay (HTRF)
Protocol: as §1, §2, §3

EGFR-WT = EGFR-WT (Homo sapiens, UniProt P00533); assay: Wild-type EGFR biochemical activity assay (HTRF)
Protocol: as §1, §2, §3

Sequence of EGFR D770GY (P00533 with tags, fused parts or gaps INS769G/D770Y limits assumed): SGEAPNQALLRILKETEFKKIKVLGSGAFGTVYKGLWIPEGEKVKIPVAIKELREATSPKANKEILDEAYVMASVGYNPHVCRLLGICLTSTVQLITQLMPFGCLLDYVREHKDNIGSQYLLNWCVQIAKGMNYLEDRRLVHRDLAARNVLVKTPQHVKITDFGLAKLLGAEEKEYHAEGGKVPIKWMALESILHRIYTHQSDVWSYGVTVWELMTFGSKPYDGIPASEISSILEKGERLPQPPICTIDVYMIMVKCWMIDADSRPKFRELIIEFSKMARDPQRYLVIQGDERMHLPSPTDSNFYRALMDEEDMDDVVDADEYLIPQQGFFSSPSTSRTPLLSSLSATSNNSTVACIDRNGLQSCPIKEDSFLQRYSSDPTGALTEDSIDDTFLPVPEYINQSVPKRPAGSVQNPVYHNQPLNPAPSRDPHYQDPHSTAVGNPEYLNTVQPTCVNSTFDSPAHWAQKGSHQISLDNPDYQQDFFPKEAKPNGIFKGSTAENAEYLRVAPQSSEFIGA
Sequence of EGFR T790M (P00533 25-1210 T790M): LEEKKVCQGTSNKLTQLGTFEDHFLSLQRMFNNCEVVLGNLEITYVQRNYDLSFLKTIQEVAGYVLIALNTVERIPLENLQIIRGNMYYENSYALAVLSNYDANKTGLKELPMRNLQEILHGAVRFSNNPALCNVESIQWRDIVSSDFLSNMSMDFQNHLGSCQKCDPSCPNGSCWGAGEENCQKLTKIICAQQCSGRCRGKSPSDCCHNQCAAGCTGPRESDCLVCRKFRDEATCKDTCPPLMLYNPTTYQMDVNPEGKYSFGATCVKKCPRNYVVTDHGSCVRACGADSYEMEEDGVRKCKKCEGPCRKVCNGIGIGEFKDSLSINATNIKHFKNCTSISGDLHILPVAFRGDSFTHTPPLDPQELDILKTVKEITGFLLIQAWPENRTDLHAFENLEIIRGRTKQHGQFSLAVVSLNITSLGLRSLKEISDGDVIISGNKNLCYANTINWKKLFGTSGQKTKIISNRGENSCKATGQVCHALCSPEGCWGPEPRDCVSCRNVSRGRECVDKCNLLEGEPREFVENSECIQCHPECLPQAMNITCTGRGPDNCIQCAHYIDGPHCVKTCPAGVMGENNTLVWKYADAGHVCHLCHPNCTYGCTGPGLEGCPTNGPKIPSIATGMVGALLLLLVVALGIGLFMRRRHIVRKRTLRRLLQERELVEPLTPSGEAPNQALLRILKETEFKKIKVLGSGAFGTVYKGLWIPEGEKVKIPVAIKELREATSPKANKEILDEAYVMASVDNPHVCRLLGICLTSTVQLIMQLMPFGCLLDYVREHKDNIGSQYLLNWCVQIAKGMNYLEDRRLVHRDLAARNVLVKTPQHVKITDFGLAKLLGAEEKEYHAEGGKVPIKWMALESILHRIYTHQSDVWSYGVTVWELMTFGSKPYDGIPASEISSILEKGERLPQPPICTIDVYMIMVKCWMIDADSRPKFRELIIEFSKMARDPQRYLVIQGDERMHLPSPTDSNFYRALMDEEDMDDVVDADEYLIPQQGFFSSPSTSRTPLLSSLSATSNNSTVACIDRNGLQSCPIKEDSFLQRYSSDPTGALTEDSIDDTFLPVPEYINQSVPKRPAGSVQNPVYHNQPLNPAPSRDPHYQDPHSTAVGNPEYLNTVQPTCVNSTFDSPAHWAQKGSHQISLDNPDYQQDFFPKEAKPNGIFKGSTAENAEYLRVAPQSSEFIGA
Sequence of EGFR D770_N771insNPG T790M (P00533 with tags, fused parts or gaps INS770NPG/T790M limits assumed): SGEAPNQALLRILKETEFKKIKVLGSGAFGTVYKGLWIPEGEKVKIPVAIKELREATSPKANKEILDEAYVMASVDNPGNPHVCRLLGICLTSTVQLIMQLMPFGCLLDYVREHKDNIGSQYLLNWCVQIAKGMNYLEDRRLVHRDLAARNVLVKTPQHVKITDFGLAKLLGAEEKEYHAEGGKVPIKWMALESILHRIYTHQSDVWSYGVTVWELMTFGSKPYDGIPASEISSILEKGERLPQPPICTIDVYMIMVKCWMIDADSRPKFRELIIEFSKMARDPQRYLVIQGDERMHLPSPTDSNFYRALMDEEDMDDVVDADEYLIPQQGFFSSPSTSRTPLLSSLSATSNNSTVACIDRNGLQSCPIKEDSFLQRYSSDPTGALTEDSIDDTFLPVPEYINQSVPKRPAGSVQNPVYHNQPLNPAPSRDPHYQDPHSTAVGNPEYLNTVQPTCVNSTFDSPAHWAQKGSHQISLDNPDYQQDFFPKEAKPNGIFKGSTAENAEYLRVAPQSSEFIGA
Sequence of EGFR T790M/L858R (P00533 25-1210 T790M/L858R): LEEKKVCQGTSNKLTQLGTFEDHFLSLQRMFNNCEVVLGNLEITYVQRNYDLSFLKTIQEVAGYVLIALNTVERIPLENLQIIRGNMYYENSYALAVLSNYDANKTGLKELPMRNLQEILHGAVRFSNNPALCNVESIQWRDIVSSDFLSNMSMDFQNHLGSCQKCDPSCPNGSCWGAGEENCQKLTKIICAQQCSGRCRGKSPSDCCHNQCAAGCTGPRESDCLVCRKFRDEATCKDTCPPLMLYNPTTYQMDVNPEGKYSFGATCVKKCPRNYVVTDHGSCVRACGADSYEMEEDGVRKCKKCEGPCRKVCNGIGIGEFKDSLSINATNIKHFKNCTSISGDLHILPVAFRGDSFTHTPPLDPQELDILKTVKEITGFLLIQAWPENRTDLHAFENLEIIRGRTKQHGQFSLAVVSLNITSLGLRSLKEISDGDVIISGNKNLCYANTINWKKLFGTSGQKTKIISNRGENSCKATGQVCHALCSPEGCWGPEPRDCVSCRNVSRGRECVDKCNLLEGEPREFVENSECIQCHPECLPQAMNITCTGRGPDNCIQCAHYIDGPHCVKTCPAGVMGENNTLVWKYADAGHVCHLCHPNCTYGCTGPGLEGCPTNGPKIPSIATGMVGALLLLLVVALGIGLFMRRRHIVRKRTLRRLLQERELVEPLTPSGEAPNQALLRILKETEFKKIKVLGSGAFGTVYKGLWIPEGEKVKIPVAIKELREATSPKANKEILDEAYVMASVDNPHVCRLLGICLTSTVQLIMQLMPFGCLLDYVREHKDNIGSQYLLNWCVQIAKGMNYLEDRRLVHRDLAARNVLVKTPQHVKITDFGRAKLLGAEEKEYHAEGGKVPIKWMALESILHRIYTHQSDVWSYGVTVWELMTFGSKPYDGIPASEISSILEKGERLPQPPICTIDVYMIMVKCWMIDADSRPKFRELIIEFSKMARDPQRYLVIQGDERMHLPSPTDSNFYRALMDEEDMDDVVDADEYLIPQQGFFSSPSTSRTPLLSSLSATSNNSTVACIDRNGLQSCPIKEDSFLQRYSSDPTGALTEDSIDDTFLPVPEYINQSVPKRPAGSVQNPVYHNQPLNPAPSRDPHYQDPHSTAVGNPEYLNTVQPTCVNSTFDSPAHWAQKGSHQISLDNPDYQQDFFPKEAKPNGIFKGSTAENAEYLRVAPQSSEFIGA
Sequence of EGFR A763_Y764insFHEA (P00533 with tags, fused parts or gaps INS763FHEA limits assumed): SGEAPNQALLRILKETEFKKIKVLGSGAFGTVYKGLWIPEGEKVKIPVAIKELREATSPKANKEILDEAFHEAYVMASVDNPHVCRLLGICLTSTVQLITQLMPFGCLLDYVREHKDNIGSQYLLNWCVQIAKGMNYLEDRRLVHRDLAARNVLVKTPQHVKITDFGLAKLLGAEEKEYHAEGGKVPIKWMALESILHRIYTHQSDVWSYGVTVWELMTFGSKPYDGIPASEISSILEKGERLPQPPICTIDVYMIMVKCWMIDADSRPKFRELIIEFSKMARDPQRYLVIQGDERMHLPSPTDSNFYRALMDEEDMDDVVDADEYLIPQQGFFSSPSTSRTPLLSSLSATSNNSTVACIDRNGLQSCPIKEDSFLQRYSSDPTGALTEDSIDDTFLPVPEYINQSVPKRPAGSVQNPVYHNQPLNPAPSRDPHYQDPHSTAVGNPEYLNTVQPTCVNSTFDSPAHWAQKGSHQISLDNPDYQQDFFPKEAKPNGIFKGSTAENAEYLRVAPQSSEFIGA
Sequence of EGFR D770-N771insNPG (P00533 with tags, fused parts or gaps INS770NPG limits assumed): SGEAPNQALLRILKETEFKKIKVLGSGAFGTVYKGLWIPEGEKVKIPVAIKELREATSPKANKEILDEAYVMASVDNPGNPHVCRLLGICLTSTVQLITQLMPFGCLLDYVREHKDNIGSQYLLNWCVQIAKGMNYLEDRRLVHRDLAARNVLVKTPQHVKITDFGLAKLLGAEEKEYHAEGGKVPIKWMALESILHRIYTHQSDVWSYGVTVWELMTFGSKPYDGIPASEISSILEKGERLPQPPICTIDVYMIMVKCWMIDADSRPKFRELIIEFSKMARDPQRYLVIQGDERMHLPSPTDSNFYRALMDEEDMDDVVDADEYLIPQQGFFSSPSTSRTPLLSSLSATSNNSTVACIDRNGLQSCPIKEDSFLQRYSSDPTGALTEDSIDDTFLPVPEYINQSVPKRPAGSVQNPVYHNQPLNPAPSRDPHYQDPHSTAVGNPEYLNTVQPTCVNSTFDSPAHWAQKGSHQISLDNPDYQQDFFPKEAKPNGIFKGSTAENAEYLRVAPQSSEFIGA

## C=CC(=O)Nc1cc(Nc2nccc(-n3c(=O)n4c5c(cc(F)cc53)CCC4)n2)c(OC)cc1N(C)CCN(C)C [Compound 1, N-(2-((2-(dimethylamino)ethyl)(methyl)amino)-5-((4-(8-fluoro-2-oxo-5,6-dihydro-4H-imidazo[4,5,1-ij]quinolin-1(2H)-yl)pyrimidin-2-yl)amino)-4-methoxyphenyl)acrylamide]
HER2
  IC50: 35.1 nM
[1]; 30 mg/kg QD, Day 16
  Mice Survival Rate (%): 100%
[1]; 30 mg/kg QD, Day 17
  Mice Survival Rate (%): 100%
[1]; 30 mg/kg QD, Day 18
  Mice Survival Rate (%): 100%
[1]; 30 mg/kg QD, Day 22
  Mice Survival Rate (%): 100%
[1]; 30 mg/kg QD, Day 24
  Mice Survival Rate (%): 100%
[1]; 30 mg/kg QD, Day 26
  Mice Survival Rate (%): 100%
[1]; 30 mg/kg QD, Day 28
  Mice Survival Rate (%): 100%
[1]; 60 mg/kg BID, Day 16
  Mice Survival Rate (%): 100%
[1]; 60 mg/kg BID, Day 17
  Mice Survival Rate (%): 100%
[1]; 60 mg/kg BID, Day 18
  Mice Survival Rate (%): 100%
[1]; 60 mg/kg BID, Day 22
  Mice Survival Rate (%): 100%
[1]; 60 mg/kg BID, Day 24
  Mice Survival Rate (%): 100%
[1]; 60 mg/kg BID, Day 26
  Mice Survival Rate (%): 100%
[1]; 60 mg/kg BID, Day 28
  Mice Survival Rate (%): 100%
[1]; 60 mg/kg QD, Day 16
  Mice Survival Rate (%): 100%
[1]; 60 mg/kg QD, Day 17
  Mice Survival Rate (%): 100%
[1]; 60 mg/kg QD, Day 18
  Mice Survival Rate (%): 100%
[1]; 60 mg/kg QD, Day 22
  Mice Survival Rate (%): 100%
[1]; 60 mg/kg QD, Day 24
  Mice Survival Rate (%): 100%
[1]; 60 mg/kg QD, Day 26
  Mice Survival Rate (%): 100%
[1]; 60 mg/kg QD, Day 28
  Mice Survival Rate (%): 100%
LU-01-0493; LU-01-0493, 15 mg/kg compound 1
  TGI (%): 55.4%
LU-01-0493; LU-01-0493, 15 mg/kg compound 1, day 1 to day 21
  Terminal body weight changes (%): 3.2%
LU-01-0493; LU-01-0493, 30 mg/kg compound 1
  TGI (%): 72.3%
LU-01-0493; LU-01-0493, 30 mg/kg compound 1, day 1 to day 21
  Terminal body weight changes (%): −6.1%
LU-01-0493; LU-01-0493, 60 mg/kg compound 1
  TGI (%): 88.9%
LU-01-0493; LU-01-0493, 60 mg/kg compound 1, day 1 to day 21
  Terminal body weight changes (%): −6.5%
LU-01-0426; LU-01-0426, 15 mg/kg compound 1
  TGI (%): 47%
LU-01-0426; LU-01-0426, 15 mg/kg compound 1, day 1 to day 21
  Terminal body weight changes (%): 5.7%
LU-01-0426; LU-01-0426, 30 mg/kg compound 1
  TGI (%): 84%
LU-01-0426; LU-01-0426, 30 mg/kg compound 1, day 1 to day 21
  Terminal body weight changes (%): 1.8%
LU-01-0426; LU-01-0426, 60 mg/kg compound 1
  TGI (%): 106.3%
LU-01-0426; LU-01-0426, 60 mg/kg compound 1, day 1 to day 21
  Terminal body weight changes (%): −2%
[2]
  IC50: 157 nM
[3]
  IC50: 52.9 nM
LU-0387; LU-0387, 30 mg/kg compound 1
  TGI (%): 42%
LU-0387; LU-0387, 30 mg/kg compound 1, day 1 to day 21
  Terminal body weight changes (%): −7.75%
LU-0387; LU-0387, 60 mg/kg compound 1
  TGI (%): 95%
LU-0387; LU-0387, 60 mg/kg compound 1, day 1 to day 21
  Terminal body weight changes (%): 1.26%
H1975; H1975, 15 mg/kg compound 1
  TGI (%): 98%
H1975; H1975, 15 mg/kg compound 1, day 1 to day 21
  Terminal body weight changes (%): 3.9%
H1975; H1975, 30 mg/kg compound 1
  TGI (%): 106%
H1975; H1975, 30 mg/kg compound 1, day 1 to day 21
  Terminal body weight changes (%): 5.1%
H1975; H1975, 60 mg/kg compound 1
  TGI (%): 108%
H1975; H1975, 60 mg/kg compound 1, day 1 to day 21
  Terminal body weight changes (%): −4.1%
[4]
  IC50: 0.049 nM
EGFR L792H
  IC50: 27.6 nM
EGFR Del19
  IC50: 0.175 nM
EGFR A763_Y764insFHEA
  IC50: 0.264 nM
EGFR T790M/L858R
  IC50: 0.0639 nM
EGFR L792F
  IC50: 1.26 nM
EGFR D770-N771insNPG
  IC50: 0.063 nM
EGFR T790M
  IC50: 0.0526 nM
EGFR D770GY
  IC50: 0.0649 nM
EGFR-WT
  IC50: 1.56 nM
